Source: US20230027854A1, “ISOXAZOLE DERIVATIVES TARGETING TACC3 AS ANTICANCER AGENTS” (A2A Pharmaceuticals, inc., priority 2019, published 2023)

The molecules below were run on JIMT-1 cells (assay: JIMT-1 cell growth inhibition / cell viability (SRB assay)). Conditions: Homo sapiens; JIMT-1 cells; read-out: IC50.
Format: cell-based
Experimental: The ability of the compounds of the present disclosure to treat TACC3-mediated cancers, or associated symptoms or complications thereof, was determined using the following procedures. The compounds of the present disclosure were tested for their activity against cell death induction using a JIMT-1 cell line, which was a cell line having high level of TACC3. The concentration of each compound that was required for half-maximal inhibition of cell proliferation was calculated by a GraphPad Prism (GraphPad Software).

First: COc1cccc(-c2cc(Nc3ccnc(N4CCOCC4)n3)on2)c1 [Compound 6, 3-(3-methoxyphenyl)-N-(2-morpholinopyrimidin-4-yl)isoxazol-5-amine]
Second: COc1ccc(-c2cc(Nc3ccnc(N4CCOCC4)n3)on2)cc1F [Compound 22, 3-(3-fluoro-4-methoxyphenyl)-N-(2-morpholinopyrimidin-4-yl)isoxazol-5-amine]
The IC50 of the first is 260-fold higher: 3440 nM for the first, 13 nM for the second. The second is the more potent here.

First: COc1ccccc1-c1cc(Nc2ccnc(N3CCOCC3)n2)on1 [Compound 7, 3-(2-methoxyphenyl)-N-(2-morpholinopyrimidin-4-yl)isoxazol-5-amine]
Second: c1ccc(-c2cc(Nc3ccnc(N4CCOCC4)n3)on2)cc1 [Compound 8, N-(2-morpholinopyrimidin-4-yl)-3-phenylisoxazol-5-amine]
The IC50 of the first is lower: 8270 nM for the first, > 10000 nM for the second.

Going from `CCOc1ccc(-c2cc(Nc3ccnc(N4CCOCC4)n3)on2)cc1` [Compound 9, 3-(4-ethoxyphenyl)-N-(2-morpholinopyrimidin-4-yl)isoxazol-5-amine] to `CCCOc1ccc(-c2cc(Nc3ccnc(N4CCOCC4)n3)on2)cc1` [Compound 10, N-(2-morpholinopyrimidin-4-yl)-3-(4-propoxyphenyl)isoxazol-5-amine], the IC50 rises from 810 nM to > 10000 nM. The first is the more potent here.

`Fc1ccc(-c2cc(Nc3ccnc(N4CCOCC4)n3)on2)cc1` [Compound 11, 3-(4-fluorophenyl)-N-(2-morpholinopyrimidin-4-yl)isoxazol-5-amine] and `Clc1ccc(-c2cc(Nc3ccnc(N4CCOCC4)n3)on2)cc1` [Compound 12, 3-(4-chlorophenyl)-N-(2-morpholinopyrimidin-4-yl)isoxazol-5-amine] cannot be ordered by IC50: > 10000 nM for the first, > 10000 nM for the second.

Compared with `Cc1ccc(-c2cc(Nc3ccnc(N4CCOCC4)n3)on2)cc1` [Compound 13, N-(2-morpholinopyrimidin-4-yl)-3-(p-tolyl)isoxazol-5-amine], `Oc1ccc(-c2cc(Nc3ccnc(N4CCOCC4)n3)on2)cc1` [Compound 30, 4-(5-((2-morpholinopyrimidin-4-yl)amino)isoxazol-3-yl)phenol] is higher in IC50: 640 nM for the first, > 10000 nM for the second.

First: CCc1ccc(-c2cc(Nc3ccnc(N4CCOCC4)n3)on2)cc1 [Compound 14, 3-(4-ethylphenyl)-N-(2-morpholinopyrimidin-4-yl)isoxazol-5-amine]
Second: CSc1ccc(-c2cc(Nc3ccnc(N4CCOCC4)n3)on2)cc1 [Compound 20, 3-(4-(methylthio)phenyl)-N-(2-morpholinopyrimidin-4-yl)isoxazol-5-amine]
The IC50 of the first is 8.6-fold higher: 259 nM for the first, 30 nM for the second.

Going from `CC(C)c1ccc(-c2cc(Nc3ccnc(N4CCOCC4)n3)on2)cc1` [Compound 15, 3-(4-isopropylphenyl)-N-(2-morpholinopyrimidin-4-yl)isoxazol-5-amine] to `CN(C)c1ccc(-c2cc(Nc3ccnc(N4CCOCC4)n3)on2)cc1` [Compound 21, 3-(4-(dimethylamino)phenyl)-N-(2-morpholinopyrimidin-4-yl)isoxazol-5-amine], the IC50 falls from 3610 nM to 120 nM (30-fold).

`FC(F)(F)c1ccc(-c2cc(Nc3ccnc(N4CCOCC4)n3)on2)cc1` [Compound 16, N-(2-morpholinopyrimidin-4-yl)-3-(4-(trifluoromethyl)phenyl)isoxazol-5-amine] and `CC(F)(F)c1ccc(-c2cc(Nc3ccnc(N4CCOCC4)n3)on2)cc1` [Compound 17, 3-(4-(1,1-difluoroethyl)phenyl)-N-(2-morpholinopyrimidin-4-yl)isoxazol-5-amine] cannot be ordered by IC50: > 10000 nM for the first, > 10000 nM for the second.

First: FC(F)Oc1ccc(-c2cc(Nc3ccnc(N4CCOCC4)n3)on2)cc1 [Compound 18, 3-(4-(difluoromethoxy)phenyl)-N-(2-morpholinopyrimidin-4-yl)isoxazol-5-amine]
Second: FC(F)(F)Oc1ccc(-c2cc(Nc3ccnc(N4CCOCC4)n3)on2)cc1 [Compound 19, N-(2-morpholinopyrimidin-4-yl)-3-(4-(trifluoromethoxy)phenyl)isoxazol-5-amine]
The IC50 of the first is lower: 4230 nM for the first, > 10000 nM for the second.

First: COc1ccc(-c2cc(Nc3ccnc(N4CCOCC4)n3)on2)cc1Cl [Compound 23, 3-(3-chloro-4-methoxyphenyl)-N-(2-morpholinopyrimidin-4-yl)isoxazol-5-amine]
Second: COc1ccc(-c2cc(Nc3ccnc(N4CCOCC4)n3)on2)cc1OC [Compound 24, 3-(3,4-dimethoxyphenyl)-N-(2-morpholinopyrimidin-4-yl)isoxazol-5-amine]
The IC50 of the first is 1.5-fold lower: 480 nM for the first, 730 nM for the second.

Compared with `c1cc(Nc2cc(-c3ccc4c(c3)OCO4)no2)nc(N2CCOCC2)n1` [Compound 26, 3-(benzo[d][1,3]dioxol-5-yl)-N-(2-morpholinopyrimidin-4-yl)isoxazol-5-amine], `COc1ccc(-c2cc(Nc3ccnc(N4CCOCC4)n3)on2)cn1` [Compound 27, 3-(6-methoxypyridin-3-yl)-N-(2-morpholinopyrimidin-4-yl)isoxazol-5-amine] is 8.4-fold higher in IC50: 870 nM for the first, 7300 nM for the second.

First: c1ccc(COc2ccc(-c3cc(Nc4ccnc(N5CCOCC5)n4)on3)cc2)cc1 [Compound 32, 3-(4-(benzyloxy)phenyl)-N-(2-morpholinopyrimidin-4-yl)isoxazol-5-amine]
Second: COc1ccc(-c2cc(Nc3ccnc(N4CCCC4)n3)on2)cc1 [Compound 45, 3-(4-methoxyphenyl)-N-(2-(pyrrolidin-1-yl)pyrimidin-4-yl)isoxazol-5-amine]
The IC50 of the first is higher: > 10000 nM for the first, 105 nM for the second.

Going from `COc1ccc(-c2cc(Nc3ccnc(N4C[C@@H](C)O[C@@H](C)C4)n3)on2)cc1` [Compound 33, N-(2-((2R,6S)-2,6-dimethylmorpholino)pyrimidin-4-yl)-3-(4-methoxyphenyl)isoxazol-5-amine] to `COc1ccc(-c2cc(Nc3ccnc(N4CC5CCC(C4)O5)n3)on2)cc1` [Compound 35, N-(2-(8-oxa-3-azabicyclo[3.2.1]octan-3-yl)pyrimidin-4-yl)-3-(4-methoxyphenyl)isoxazol-5-amine], the IC50 rises from 230 nM to 3090 nM (13-fold).

First: COc1ccc(-c2cc(Nc3ccnc(N4C5CCC4COC5)n3)on2)cc1 [Compound 34, N-(2-(3-oxa-8-azabicyclo[3.2.1]octan-8-yl)pyrimidin-4-yl)-3-(4-methoxyphenyl)isoxazol-5-amine]
Second: COc1ccc(-c2cc(Nc3ccnc(N4C[C@@H]5C[C@H]4CO5)n3)on2)cc1 [Compound 36, N-(2-((1S,4S)-2-oxa-5-azabicyclo[2.2.1]heptan-5-yl)pyrimidin-4-yl)-3-(4-methoxyphenyl)isoxazol-5-amine]
The IC50 of the first is 13-fold lower: 160 nM for the first, 2020 nM for the second. The first is the more potent here.

Going from `COc1ccc(-c2cc(Nc3ccnc(N4C[C@H]5C[C@@H]4CO5)n3)on2)cc1` [Compound 37, N-(2-((1R,4R)-2-oxa-5-azabicyclo[2.2.1]heptan-5-yl)pyrimidin-4-yl)-3-(4-methoxyphenyl)isoxazol-5-amine] to `COc1ccc(-c2cc(Nc3ccnc(N4CCC(F)CC4)n3)on2)cc1` [Compound 38, N-(2-(4-fluoropiperidin-1-yl)pyrimidin-4-yl)-3-(4-methoxyphenyl)isoxazol-5-amine], the IC50 falls from 480 nM to 130 nM (3.7-fold). The second is the more potent here.

Compared with `COc1ccc(-c2cc(Nc3ccnc(N4CCC(F)(F)CC4)n3)on2)cc1` [Compound 39, N-(2-(4,4-difluoropiperidin-1-yl)pyrimidin-4-yl)-3-(4-methoxyphenyl)isoxazol-5-amine], `COc1ccc(-c2cc(Nc3ccnc(N4CCSCC4)n3)on2)cc1` [Compound 40, 3-(4-methoxyphenyl)-N-(2-thiomorpholinopyrimidin-4-yl)isoxazol-5-amine] is 3.3-fold lower in IC50: 370 nM for the first, 113 nM for the second.

Going from `COc1ccc(-c2cc(Nc3ccnc(N4CCS(=O)(=O)CC4)n3)on2)cc1` [Compound 41, 4-(4-((3-(4-methoxyphenyl)isoxazol-5-yl)amino)pyrimidin-2-yl)thiomorpholine 1,1-dioxide] to `COc1ccc(-c2cc(Nc3ccnc(N4CCN(C)CC4)n3)on2)cc1` [Compound 48, 3-(4-methoxyphenyl)-N-(2-(4-methylpiperazin-1-yl)pyrimidin-4-yl)isoxazol-5-amine], the IC50 falls from > 10000 nM to 1560 nM. The second is the more potent here.

First: COc1ccc(-c2cc(Nc3ccnc(N4CCCCC4)n3)on2)cc1 [Compound 42, 3-(4-methoxyphenyl)-N-(2-(piperidin-1-yl)pyrimidin-4-yl)isoxazol-5-amine]
Second: COc1ccc(-c2cc(Nc3ccnc(N4CCNCC4)n3)on2)cc1 [Compound 49, 3-(4-methoxyphenyl)-N-(2-(piperazin-1-yl)pyrimidin-4-yl)isoxazol-5-amine]
The IC50 of the first is lower: 116 nM for the first, > 10000 nM for the second. The first is the more potent here.

Going from `COc1ccc(-c2cc(Nc3ccnc(N4CCC(C)CC4)n3)on2)cc1` [Compound 43, 3-(4-methoxyphenyl)-N-(2-(4-methylpiperidin-1-yl)pyrimidin-4-yl)isoxazol-5-amine] to `COc1ccc(-c2cc(Nc3ccnc(N4CCC(C(=O)O)CC4)n3)on2)cc1` [Compound 51, 1-(4-((3-(4-methoxyphenyl)isoxazol-5-yl)amino)pyrimidin-2-yl)piperidine-4-carboxylic acid], the IC50 rises from 204 nM to > 10000 nM.

First: COc1ccc(-c2cc(Nc3ccnc(N4CCC(C(F)(F)F)CC4)n3)on2)cc1 [Compound 44, 3-(4-methoxyphenyl)-N-(2-(4-(trifluoromethyl)piperidin-1-yl)pyrimidin-4-yl)isoxazol-5-amine]
Second: COc1ccc(-c2cc(Nc3ccnc(N4CCC(CCO)CC4)n3)on2)cc1 [Compound 46, 2-(1-(4-((3-(4-methoxyphenyl)isoxazol-5-yl)amino)pyrimidin-2-yl)piperidin-4-yl)ethan-1-ol]
The IC50 of the first is 71-fold lower: 56 nM for the first, 3970 nM for the second.

`COc1ccc(-c2cc(Nc3ccnc(N4CCN(CCO)CC4)n3)on2)cc1` [Compound 47, 2-(4-(4-((3-(4-methoxyphenyl)isoxazol-5-yl)amino)pyrimidin-2-yl)piperazin-1-yl)ethan-1-ol] and `CCOC(=O)C1CCN(c2nccc(Nc3cc(-c4ccc(OC)cc4)no3)n2)CC1` [Compound 50, Ethyl 1-(4-((3-(4-methoxyphenyl)isoxazol-5-yl)amino)pyrimidin-2-yl)piperidine-4-carboxylate] cannot be ordered by IC50: > 10000 nM for the first, > 10000 nM for the second.

For `COc1ccc(-c2cc(Nc3nc(N4CCC(F)CC4)ncc3Cl)on2)cc1` [Compound 59, N-(5-chloro-2-(4-fluoropiperidin-1-yl)pyrimidin-4-yl)-3-(4-methoxyphenyl)isoxazol-5-amine], the IC50 was 800 nM.
